{"source": "patent US20230381192A1", "about": "“METHODS FOR CONTROLLING AND PREDICTING RECOVERY AFTER NMBA ADMINISTRATION” (Cornell University, priority 2020, published 2023)", "key": {"Rhesus monkeys": {"system": "Rhesus monkeys", "test": "Spontaneous recovery from NMB (twitch 5% to 95% of baseline) after bolus or infusion in Rhesus monkeys under isoflurane", "format": "in vivo, Rhesus monkey", "settings": "for 5%-95% Interval: mean ± SD", "protocol": "Rhesus monkeys under isoflurane anesthesia were administered a bolus dose of either RP2000 or RP1000 at a dose equal to 1× to 10× the ED95 in Rhesus monkeys of the administered compound (ED95,Rp1000=0.040 mg/kg; ED95,RP2000=0.053 mg/kg). Twitch (0.15 Hz) and TOF (2 Hz×2 seconds) were recorded throughout the 6 -10 hours experiments. Time to spontaneous recovery after bolus administration, characterized by recovery of twitch from 5% to 95% of baseline was measured.\nSeparately, continuous infusions of 20-180 minutes duration were given (to separate subjects), and after discontinuation of infusion, time to spontaneous recovery of NMB, characterized by recovery of twitch from 5% to 95% of baseline was measured."}, "[1]": {"test": "Predicted spontaneous recovery after RP2000 in patients under inhaled anesthesia", "format": "in vivo, human", "settings": "doses up to 2.5-3× the ED95", "text": "While not wishing to be bound by theory, it is believed that the highly reproducible half-life is due to degradation of RP1000 through cysteine adduction (e.g., by reaction with glutathione). The advantages imparted by the understanding of the pharmacodynamics of RP1000 include, but are not limited to, that the level of recovery of function may be easily predicted in human patients. […] This disclosure therefore reflects this prediction."}}}
{"smiles": "COc1ccc(C[C@@H]2c3cc(OC)c(OC)cc3CC[N@@+]2(C)CCCOC(=O)/C=C/C(=O)OCCC[N+]2(Cc3ccc(OC)c(OC)c3)CCOCC2)cc1.[Cl-].[Cl-]", "note": "[RP2000, 4-(3-(((E)-4-(3-((1R)-6,7-dimethoxy-1-(4-methoxybenzyl)-2-methyl-1,2,3 4-tetrahydro-2-isoquinolin-2-ium-2-yl)propoxy)-4-oxobut-2-enoyl)oxy)propyl)-4-(3,4-dimethoxybenzyl)morpholin-4-ium]", "values": [{"measurement": "ED95 in Rhesus monkeys", "setting": "Rhesus monkeys; Rhesus monkeys, isoflurane anesthesia", "result": 0.053, "unit": "mg/kg"}, {"measurement": "5%-95% Interval", "setting": "Rhesus monkeys; after continuous infusion of 20-180 minutes", "result": "6.2 ± 1.4", "unit": "min"}, {"measurement": "5%-95% Interval", "setting": "Rhesus monkeys; bolus dose 0.10 mg/kg", "result": "6.1 ± 1.6", "unit": "min"}, {"measurement": "5%-95% Interval", "setting": "Rhesus monkeys; bolus dose 0.20 mg/kg", "result": "6.4 ± 1.9", "unit": "min"}, {"measurement": "5%-95% Interval", "setting": "Rhesus monkeys; bolus dose 0.50 mg/kg", "result": "6.7 ± 2.4", "unit": "min"}, {"measurement": "predictability of spontaneous recovery", "setting": "[1]", "result": "highly predictable"}]}
